Experimental data as given in patent EP0908457B1, “3-(1,2-benzisothiazol- and isoxazol-5-Y1)-2,4(1H,3H)-pyrimidinedione or thione and 3-(1,2-benzisothiazol- and isoxazol-5-y1)-4(3H)-pyrimidinone or thione herbicidal agents” (BASF AKTIENGESELLSCHAFT, priority 1997, dated 1999).

Tests used:
[1] = test system: Monochoria vaginalis, Presl.; test: Preemergence weed control under flooded paddy conditions, MOOVA (Monochoria); format: in vivo; conditions: preemergence, flooded paddy
[2] = test system: Echinochloa oryzoides (Ard.) Fritsch.; test: Preemergence weed control under flooded paddy conditions, ECHORC (Watergrass (Calif.)); format: in vivo; conditions: preemergence, flooded paddy
[3] = test system: Oryza sativa, (L.) Tebonnet; test: Rice tolerance to post-transplant applications under flooded paddy conditions (Example 187), ORYSAT (Rice, Tebonnet)
Cyperus iria = test: Preemergence weed control under flooded paddy conditions, CYPIR (Rice Flatsedge); format: in vivo; conditions: preemergence, flooded paddy
[4] = test system: Cyperus serotinus, Rottb.; test: Preemergence weed control under flooded paddy conditions, CYPSE (Flatsedge); format: in vivo; conditions: preemergence
Sagittaria pygmaea, L. = test: Preemergence weed control under flooded paddy conditions, SAGPY (Arrowhead (Pygmaea)); format: in vivo; conditions: preemergence, flooded paddy
[5] = Rate 0.0320 kg/ha, rated three to four weeks after treatment
[6] = Rate 0.0620 kg/ha, rated three to four weeks after treatment
[7] = Rate 0.1250 kg/ha, rated three to four weeks after treatment
[8] = Rate 0.2500 kg/ha, rated three to four weeks after treatment
[9] = Rate 0.0320 kg/ha, rated 3-4 weeks after treatment
[10] = Rate 0.0620 kg/ha, rated 3-4 weeks after treatment
[11] = Rate 0.1250 kg/ha, rated 3-4 weeks after treatment
[12] = Rate 0.2500 kg/ha, rated 3-4 weeks after treatment
[13] = Rate 0.5000 kg/ha, rated 3-4 weeks after treatment
Further: meaning of each grade not given here.

Cn1c(C(F)(F)F)cc(=O)n(-c2ccc3snc(C(=O)NCC(=O)O)c3c2)c1=O [Example 579, Glycine, N-{{5-[3,6-dihydro-3-methyl-2,6-dioxo-4-(trifluoromethyl)-1(2H)-pyrimidinyl]-1,2-benzisothiazol-3-yl}carbonyl}-]
herbicidal effect rating, MOOVA [1, 5]: 6.0 | herbicidal effect rating, MOOVA [1, 6]: 7.0 | herbicidal effect rating, MOOVA [1, 7]: 7.0 | herbicidal effect rating, MOOVA [1, 8]: 9.0 | herbicidal effect rating, ECHORC [2, 5]: 2.0 | herbicidal effect rating, ECHORC [2, 6]: 4.0 | herbicidal effect rating, ECHORC [2, 7]: 4.0 | herbicidal effect rating, ECHORC [2, 8]: 5.0 | herbicidal effect rating ORYSAT [3, 5]: 0.0 | herbicidal effect rating ORYSAT [3, 6]: 2.0 | herbicidal effect rating ORYSAT [3, 7]: 3.0 | herbicidal effect rating ORYSAT [3, 8]: 3.0 | herbicidal effect rating, CYPIR (Cyperus iria; [5]): 0.0 | herbicidal effect rating, CYPIR (Cyperus iria; [6]): 0.0 | herbicidal effect rating, CYPIR (Cyperus iria; [7]): 4.0 | herbicidal effect rating, CYPIR (Cyperus iria; [8]): 6.0 | herbicidal effect rating, CYPSE [4, 5]: 0.0 | herbicidal effect rating, CYPSE [4, 6]: 0.0 | herbicidal effect rating, CYPSE [4, 7]: 0.0 | herbicidal effect rating, CYPSE [4, 8]: 0.0 | herbicidal effect rating, SAGPY (Sagittaria pygmaea, L.; [5]): 0.0 | herbicidal effect rating, SAGPY (Sagittaria pygmaea, L.; [6]): 0.0 | herbicidal effect rating, SAGPY (Sagittaria pygmaea, L.; [7]): 0.0 | herbicidal effect rating, SAGPY (Sagittaria pygmaea, L.; [8]): 2.0

Cc1ccc(OC(C)C(=O)NS(C)(=O)=O)c(-c2nsc3ccc(-n4c(=O)cc(C(F)(F)F)n(C)c4=O)cc23)c1 (centres unmarked) [Example 572, Propionamide, 2-{{2-{5-[3,6-dihydro-3-methyl-2,6-dioxo-4-(trifluoromethyl)-1(2H)-pyrimidinyl)-1,2-benzisothiazol-3-yl}-p-tolyl}oxy}-N-(methylsulfonyl)-]
herbicidal effect rating, MOOVA [1, 5]: 0.0 | herbicidal effect rating, MOOVA [1, 6]: 6.0 | herbicidal effect rating, MOOVA [1, 7]: 6.0 | herbicidal effect rating, MOOVA [1, 8]: 9.0 | herbicidal effect rating, ECHORC [2, 5]: 0.0 | herbicidal effect rating, ECHORC [2, 6]: 0.0 | herbicidal effect rating, ECHORC [2, 7]: 2.0 | herbicidal effect rating, ECHORC [2, 8]: 6.0 | herbicidal effect rating ORYSAT [3, 5]: 0.0 | herbicidal effect rating ORYSAT [3, 6]: 1.0 | herbicidal effect rating ORYSAT [3, 7]: 3.0 | herbicidal effect rating ORYSAT [3, 8]: 6.0 | herbicidal effect rating, CYPIR (Cyperus iria; [5]): 0.0 | herbicidal effect rating, CYPIR (Cyperus iria; [6]): 0.0 | herbicidal effect rating, CYPIR (Cyperus iria; [7]): 2.0 | herbicidal effect rating, CYPIR (Cyperus iria; [8]): 5.0 | herbicidal effect rating, CYPSE [4, 5]: 0.0 | herbicidal effect rating, CYPSE [4, 6]: 0.0 | herbicidal effect rating, CYPSE [4, 7]: 0.0 | herbicidal effect rating, CYPSE [4, 8]: 2.0 | herbicidal effect rating, SAGPY (Sagittaria pygmaea, L.; [5]): 0.0 | herbicidal effect rating, SAGPY (Sagittaria pygmaea, L.; [6]): 0.0 | herbicidal effect rating, SAGPY (Sagittaria pygmaea, L.; [7]): 0.0 | herbicidal effect rating, SAGPY (Sagittaria pygmaea, L.; [8]): 3.0

Cn1c(C(F)(F)F)cc(=O)n(-c2ccc3snc(C(C#N)=Cc4ccncc4)c3c2)c1=O [Example 596, 1,2-Benzisothiazole-3-acetonitrile, 5-[3,6-dihydro-3-methyl-2,6-dioxo-4-(trifluoromethyl)-1(2H)-pyrimidinyl]-alpha-(4-pyridylmethylene)-]
herbicidal effect rating, MOOVA [1, 5]: 3.0 | herbicidal effect rating, MOOVA [1, 6]: 4.0 | herbicidal effect rating, MOOVA [1, 7]: 7.0 | herbicidal effect rating, MOOVA [1, 8]: 9.0 | herbicidal effect rating, ECHORC [2, 5]: 0.0 | herbicidal effect rating, ECHORC [2, 6]: 4.0 | herbicidal effect rating, ECHORC [2, 7]: 5.0 | herbicidal effect rating, ECHORC [2, 8]: 7.0 | herbicidal effect rating ORYSAT [3, 5]: 0.0 | herbicidal effect rating ORYSAT [3, 6]: 3.0 | herbicidal effect rating ORYSAT [3, 7]: 4.0 | herbicidal effect rating ORYSAT [3, 8]: 6.0 | herbicidal effect rating, CYPIR (Cyperus iria; [5]): 0.0 | herbicidal effect rating, CYPIR (Cyperus iria; [6]): 0.0 | herbicidal effect rating, CYPIR (Cyperus iria; [7]): 0.0 | herbicidal effect rating, CYPIR (Cyperus iria; [8]): 0.0 | herbicidal effect rating, CYPSE [4, 5]: 0.0 | herbicidal effect rating, CYPSE [4, 6]: 0.0 | herbicidal effect rating, CYPSE [4, 7]: 0.0 | herbicidal effect rating, CYPSE [4, 8]: 0.0 | herbicidal effect rating, SAGPY (Sagittaria pygmaea, L.; [5]): 0.0 | herbicidal effect rating, SAGPY (Sagittaria pygmaea, L.; [6]): 0.0 | herbicidal effect rating, SAGPY (Sagittaria pygmaea, L.; [7]): 2.0 | herbicidal effect rating, SAGPY (Sagittaria pygmaea, L.; [8]): 6.0

CNC(=O)OCc1nsc2ccc(-n3c(=O)cc(C(F)(F)F)n(C)c3=O)cc12 [Example 374, 2,4(1H,3H)-Pyrimidinedione, 3-[3-(hydroxymethyl)1,2-benzisothiazol-5-yl]-1-methyl-6-(trifluoromethyl)-, methylcarbamate (ester)]
herbicidal effect rating, MOOVA [1, 5]: 9.0 | herbicidal effect rating, MOOVA [1, 6]: 9.0 | herbicidal effect rating, MOOVA [1, 7]: 9.0 | herbicidal effect rating, MOOVA [1, 8]: 9.0 | herbicidal effect rating, ECHORC [2, 5]: 3.0 | herbicidal effect rating, ECHORC [2, 6]: 3.0 | herbicidal effect rating, ECHORC [2, 7]: 4.0 | herbicidal effect rating, ECHORC [2, 8]: 6.0 | herbicidal effect rating ORYSAT [3, 5]: 4.0 | herbicidal effect rating ORYSAT [3, 6]: 4.0 | herbicidal effect rating ORYSAT [3, 7]: 6.0 | herbicidal effect rating ORYSAT [3, 8]: 7.0 | herbicidal effect rating, CYPIR (Cyperus iria; [5]): 6.0 | herbicidal effect rating, CYPIR (Cyperus iria; [6]): 9.0 | herbicidal effect rating, CYPIR (Cyperus iria; [7]): 9.0 | herbicidal effect rating, CYPIR (Cyperus iria; [8]): 9.0 | herbicidal effect rating, CYPSE [4, 5]: 0.0 | herbicidal effect rating, CYPSE [4, 6]: 0.0 | herbicidal effect rating, CYPSE [4, 7]: 0.0 | herbicidal effect rating, CYPSE [4, 8]: 5.0 | herbicidal effect rating, SAGPY (Sagittaria pygmaea, L.; [5]): 2.0 | herbicidal effect rating, SAGPY (Sagittaria pygmaea, L.; [6]): 3.0 | herbicidal effect rating, SAGPY (Sagittaria pygmaea, L.; [7]): 6.0 | herbicidal effect rating, SAGPY (Sagittaria pygmaea, L.; [8]): 9.0

Cc1ccc(OCC(N)=O)c(-c2nsc3ccc(-n4c(=O)cc(C(F)(F)F)n(C)c4=O)cc23)c1 [Example 539, Acetamide, 2-{{2-{5-[3,6-dihydro-3-methyl-2,6-dioxo-4-(trifluoromethyl)-1(2H)-pyrimidinyl]-1,2-benzisothiazol-3-yl}-p-tolyl}oxy}-]
herbicidal effect rating, MOOVA [1, 9]: 8.0 | herbicidal effect rating, MOOVA [1, 10]: 9.0 | herbicidal effect rating, MOOVA [1, 11]: 9.0 | herbicidal effect rating, MOOVA [1, 12]: 9.0 | herbicidal effect rating, MOOVA [1, 13]: 9.0 | herbicidal effect rating, ECHORC [2, 9]: 2.1 | herbicidal effect rating, ECHORC [2, 10]: 3.0 | herbicidal effect rating, ECHORC [2, 11]: 4.7 | herbicidal effect rating, ECHORC [2, 12]: 7.0 | herbicidal effect rating, ECHORC [2, 13]: 9.0 | herbicidal effect rating ORYSAT [3, 9]: 0.0 | herbicidal effect rating ORYSAT [3, 10]: 1.0 | herbicidal effect rating ORYSAT [3, 11]: 1.0 | herbicidal effect rating ORYSAT [3, 12]: 1.0 | herbicidal effect rating ORYSAT [3, 13]: 5.0 | herbicidal effect rating, CYPIR (Cyperus iria; [9]): 0.0 | herbicidal effect rating, CYPIR (Cyperus iria; [10]): 2.0 | herbicidal effect rating, CYPIR (Cyperus iria; [11]): 6.0 | herbicidal effect rating, CYPIR (Cyperus iria; [12]): 8.0 | herbicidal effect rating, CYPIR (Cyperus iria; [13]): 9.0 | herbicidal effect rating, CYPSE [4, 9]: 0.0 | herbicidal effect rating, CYPSE [4, 10]: 0.0 | herbicidal effect rating, CYPSE [4, 11]: 0.0 | herbicidal effect rating, CYPSE [4, 12]: 0.0 | herbicidal effect rating, CYPSE [4, 13]: 2.0 | herbicidal effect rating, SAGPY (Sagittaria pygmaea, L.; [9]): 0.0 | herbicidal effect rating, SAGPY (Sagittaria pygmaea, L.; [10]): 0.0 | herbicidal effect rating, SAGPY (Sagittaria pygmaea, L.; [11]): 1.0 | herbicidal effect rating, SAGPY (Sagittaria pygmaea, L.; [12]): 4.0 | herbicidal effect rating, SAGPY (Sagittaria pygmaea, L.; [13]): 9.0

Cn1c(C(F)(F)F)cc(=O)n(-c2ccc3snc(COCc4ccc(Cl)cc4)c3c2)c1=O [Example 584, 2,4(1H,3H)-Pyrimidinedione, 3-{3-{[(p-chlorobenzyl)oxy]methyl}-1,2-benzisothiazol-5-yl}-1-methyl-6-(trifluoromethyl)-]
herbicidal effect rating, MOOVA [1, 5]: 3.0 | herbicidal effect rating, MOOVA [1, 6]: 8.0 | herbicidal effect rating, MOOVA [1, 7]: 9.0 | herbicidal effect rating, MOOVA [1, 8]: 9.0 | herbicidal effect rating, ECHORC [2, 5]: 6.0 | herbicidal effect rating, ECHORC [2, 6]: 9.0 | herbicidal effect rating, ECHORC [2, 7]: 9.0 | herbicidal effect rating, ECHORC [2, 8]: 9.0 | herbicidal effect rating ORYSAT [3, 5]: 0.0 | herbicidal effect rating ORYSAT [3, 6]: 1.0 | herbicidal effect rating ORYSAT [3, 7]: 1.0 | herbicidal effect rating ORYSAT [3, 8]: 3.5 | herbicidal effect rating, CYPIR (Cyperus iria; [5]): 1.5 | herbicidal effect rating, CYPIR (Cyperus iria; [6]): 6.0 | herbicidal effect rating, CYPIR (Cyperus iria; [7]): 9.0 | herbicidal effect rating, CYPIR (Cyperus iria; [8]): 9.0 | herbicidal effect rating, CYPSE [4, 5]: 0.0 | herbicidal effect rating, CYPSE [4, 6]: 0.0 | herbicidal effect rating, CYPSE [4, 8]: 0.0 | herbicidal effect rating, SAGPY (Sagittaria pygmaea, L.; [5]): 0.0 | herbicidal effect rating, SAGPY (Sagittaria pygmaea, L.; [6]): 1.5 | herbicidal effect rating, SAGPY (Sagittaria pygmaea, L.; [7]): 4.0 | herbicidal effect rating, SAGPY (Sagittaria pygmaea, L.; [8]): 2.0
